Results published in patent US20230136600A1, “Method and device for screening antigen epitope polypeptide” (priority 2020, published 2023).

How the values were obtained:
[1] = tested on: novel coronavirus (live coronavirus), vero cells; test: In-vitro live virus neutralization experiment with serum of immunized mice (CPE method); type: in vivo, SARS-CoV-2; conditions: Embodiment I: single peptide 100 μg + MF59 at Day 0, 14, 28, Balb/c mice, serum Day 35
Balb/c mice = test: Polypeptide chip-based vaccine immunogenicity scoring system; type: in vivo; set-up: key to A2: whether the 95 percentile of the last sampling is increased compared with the end point: Y = rise; N = no rise
[2] = Embodiment III, polypeptide-KLH
[3] = Embodiment III, polypeptide-KLH, Mix1-10
[4] = Embodiment III, polypeptide-KLH, total score = 5
[5] = Embodiment III, polypeptide-KLH, value of the whole mix
[6] = adjuvant AddaVax, 7 peptides co-immunized in mice
[7] = adjuvant Adju-Phos, 7 peptides co-immunized in mice
[8] = adjuvant Alhydrogel, 7 peptides co-immunized in mice
[9] = adjuvant Imjet Alumn, 7 peptides co-immunized in mice
[10] = adjuvant MA103A, 7 peptides co-immunized in mice
[11] = adjuvant MA103B, 7 peptides co-immunized in mice

YGANKDGI (SARS-CoV-2) [SEQ ID NO:21]
Neutralizing antibody positive rate (%) [1]: 40% | B1: D 0-D 14 95 percentile rise in the number of mice (Balb/c mice; [2]): 3 | B2: D 0-D 21 95 percentile rise in the number of mice (Balb/c mice; [2]): 3 | B3: D 14-D 21 95 percentile rise in the number of mice (Balb/c mice; [2]): 1 | B4: D 21-D 28 95 percentile rise in the number of mice (Balb/c mice; [2]): 1 | A1: difference between a highest median and a D 0 median (95 percentile) (Balb/c mice; [3]): 0.08 | A2: whether the 95 percentile of the last sampling is increased compared with the end point (Balb/c mice; [3]): Y | Total single peptide (Balb/c mice; Embodiment III, polypeptide-KLH, A*3 + B*2 + C*1): 14.8 | A: 95 percentile grouping number score (Balb/c mice; [4]): 3.5 | B: Mouse performance score (Balb/c mice; [4]): 1.9 | C1: #A timing-sequence response peptide fragment set (Balb/c mice; [5]): 230 | C2: #B vaccine specificity peptide fragment set (Balb/c mice; [5]): 251 | C3: Intersection of A and B (Balb/c mice; [5]): 1 | C4: Percentage of the intersection in set B (Balb/c mice; [5]): 0.398 | C: Timing-sequence response and specificity score (Balb/c mice; [5]): 0.5 | 1) 95 percentile grouping number A (Balb/c mice; [6]): 3.5 | 1) 95 percentile grouping number A1 (Balb/c mice; [6]): 0.055 | 2) Mouse performance B (Balb/c mice; [6]): 2.6 | 2) Mouse performance B1 (Balb/c mice; [6]): 0 | 2) Mouse performance B2 (Balb/c mice; [6]): 3 | 2) Mouse performance B3 (Balb/c mice; [6]): 5 | 3) Timing-sequence response and specificity C (Balb/c mice; [6]): 0 | 3) Timing-sequence response and specificity C1 (Balb/c mice; [6]): 237 | 3) Timing-sequence response and specificity C2 (Balb/c mice; [6]): 1244 | 3) Timing-sequence response and specificity C3 (Balb/c mice; [6]): 0 | 3) Timing-sequence response and specificity C4 (Balb/c mice; [6]): 0.000 | Total single peptide (Balb/c mice; [6]): 15.7 | 1) 95 percentile grouping number A (Balb/c mice; [7]): 4 | 1) 95 percentile grouping number A1 (Balb/c mice; [7]): 0.05 | 2) Mouse performance B (Balb/c mice; [7]): 2.9 | 2) Mouse performance B1 (Balb/c mice; [7]): 3 | 2) Mouse performance B2 (Balb/c mice; [7]): 4 | 2) Mouse performance B3 (Balb/c mice; [7]): 3 | 3) Timing-sequence response and specificity C (Balb/c mice; [7]): 0 | 3) Timing-sequence response and specificity C1 (Balb/c mice; [7]): 203 | 3) Timing-sequence response and specificity C2 (Balb/c mice; [7]): 1244 | 3) Timing-sequence response and specificity C3 (Balb/c mice; [7]): 0 | 3) Timing-sequence response and specificity C4 (Balb/c mice; [7]): 0.000 | Total single peptide (Balb/c mice; [7]): 17.8 | 1) 95 percentile grouping number A (Balb/c mice; [8]): 1.5 | 1) 95 percentile grouping number A1 (Balb/c mice; [8]): 0.025 | 2) Mouse performance B (Balb/c mice; [8]): 2.4 | 2) Mouse performance B1 (Balb/c mice; [8]): 4 | 2) Mouse performance B2 (Balb/c mice; [8]): 2 | 2) Mouse performance B3 (Balb/c mice; [8]): 2 | 3) Timing-sequence response and specificity C (Balb/c mice; [8]): 1 | 3) Timing-sequence response and specificity C1 (Balb/c mice; [8]): 123 | 3) Timing-sequence response and specificity C2 (Balb/c mice; [8]): 1244 | 3) Timing-sequence response and specificity C3 (Balb/c mice; [8]): 2 | 3) Timing-sequence response and specificity C4 (Balb/c mice; [8]): 0.161 | Total single peptide (Balb/c mice; [8]): 9.8 | 1) 95 percentile grouping number A (Balb/c mice; [9]): 2 | 1) 95 percentile grouping number A1 (Balb/c mice; [9]): 0.025 | 2) Mouse performance B (Balb/c mice; [9]): 2.4 | 2) Mouse performance B1 (Balb/c mice; [9]): 0 | 2) Mouse performance B2 (Balb/c mice; [9]): 4 | 2) Mouse performance B3 (Balb/c mice; [9]): 4 | 3) Timing-sequence response and specificity C (Balb/c mice; [9]): 1 | 3) Timing-sequence response and specificity C1 (Balb/c mice; [9]): 100 | 3) Timing-sequence response and specificity C2 (Balb/c mice; [9]): 1244 | 3) Timing-sequence response and specificity C3 (Balb/c mice; [9]): 3 | 3) Timing-sequence response and specificity C4 (Balb/c mice; [9]): 0.241 | Total single peptide (Balb/c mice; [9]): 11.3 | 1) 95 percentile grouping number A (Balb/c mice; [10]): 3 | 1) 95 percentile grouping number A1 (Balb/c mice; [10]): 0.042 | 2) Mouse performance B (Balb/c mice; [10]): 2.6 | 2) Mouse performance B1 (Balb/c mice; [10]): 4 | 2) Mouse performance B2 (Balb/c mice; [10]): 3 | 2) Mouse performance B3 (Balb/c mice; [10]): 2 | 3) Timing-sequence response and specificity C (Balb/c mice; [10]): 1 | 3) Timing-sequence response and specificity C1 (Balb/c mice; [10]): 260 | 3) Timing-sequence response and specificity C2 (Balb/c mice; [10]): 1244 | 3) Timing-sequence response and specificity C3 (Balb/c mice; [10]): 3 | 3) Timing-sequence response and specificity C4 (Balb/c mice; [10]): 0.241 | Total single peptide (Balb/c mice; [10]): 14.7 | 1) 95 percentile grouping number A (Balb/c mice; [11]): 2.5 | 1) 95 percentile grouping number A1 (Balb/c mice; [11]): 0.035 | 2) Mouse performance B (Balb/c mice; [11]): 2 | 2) Mouse performance B1 (Balb/c mice; [11]): 4 | 2) Mouse performance B2 (Balb/c mice; [11]): 2 | 2) Mouse performance B3 (Balb/c mice; [11]): 1 | 3) Timing-sequence response and specificity C (Balb/c mice; [11]): 0 | 3) Timing-sequence response and specificity C1 (Balb/c mice; [11]): 153 | 3) Timing-sequence response and specificity C2 (Balb/c mice; [11]): 1244 | 3) Timing-sequence response and specificity C3 (Balb/c mice; [11]): 0 | 3) Timing-sequence response and specificity C4 (Balb/c mice; [11]): 0.000 | Total single peptide (Balb/c mice; [11]): 11.5
